Experimental findings from the NIST ThermoML archive (doi:10.1021/je100341q) are described below.

For data set [1] the following is noted: for mass density: 293.15 K, 101.33 kPa, Liquid, Pycnometric method; for Normal melting temperature: Crystal, DTA.
The nature of data set [2]: refractive index (Na D-line) (dimensionless). Conditions: 293.15 K; 101.33 kPa; Liquid; Standard Abbe refractometry.
Data set [3] in a line: Molar enthalpy of transition or fusion. The following applies: Crystal; DSC.

± gives the expanded uncertainty stated by the source.

For orientation: mass density means the mass of a sample divided by its volume. Usually refractive index stands for a measure of how strongly the sample bends light. With `CO` [methanol], the mass density in data set [1] was 792 ± 1 kg/m3. The refractive index in data set [2] was determined as 1.3301 ± 0.0007.

Consider `C1COCCO1` [1,4-dioxane], for which the mass density in data set [1] amounted to 1034 ± 1 kg/m3. Further, the refractive index in data set [2] is on record as 1.4175 ± 0.0008.

Take `Cc1ccccc1` [toluene]: the mass density in data set [1] was 866 ± 1 kg/m3. The refractive index in data set [2] is reported as 1.4967 ± 0.0007.

As for `CCO` [ethanol], in data set [1], the mass density is 790 ± 1 kg/m3. In addition, the refractive index in data set [2] is listed as 1.366 ± 0.0007.

As to `C1CCCCC1` [cyclohexane], the mass density in data set [1] is 779 ± 1 kg/m3. Besides, in data set [2], the refractive index is 1.4266 ± 0.0007.

Consider `CCOCCO` [2-ethoxyethan-1-ol], for which the mass density in data set [1] was 929 ± 1 kg/m3. For the same compound, in data set [2], the refractive index was 1.4065 ± 0.0007.

For the compound `O=P1(O)OCC2(CO1)COP(=O)(O)OC2` (stereo not given), the Normal melting temperature in data set [1] worked out at 310.57 ± 0.5 °C. Further, in data set [3], the “Molar enthalpy of transition or fusion” value was found to be 22.5 ± 0.71 kJ/mol.

Take `O=P(O)(CO)c1ccccc1` [(hydroxymethyl)(phenyl)phosphinic acid]: the Normal melting temperature in data set [1] was determined as 140.2 ± 0.5 °C. Also, the “Molar enthalpy of transition or fusion” value in data set [3] stood at 27.2 ± 0.82 kJ/mol.

`CC(=O)O` [acetic acid]: the mass density in data set [1] is recorded as 1049 ± 1 kg/m3. Further, the refractive index in data set [2] was 1.3716 ± 0.0007.

On to `O=P1(Oc2ccccc2)OCC2(CO1)COP(=O)(Oc1ccccc1)OC2` (stereo not given), for which the Normal melting temperature in data set [1] was 196.43 ± 0.5 °C. Moreover, the “Molar enthalpy of transition or fusion” value in data set [3] was found to be 36.5 ± 1 kJ/mol.

`ClCCl` [dichloromethane]: the mass density in data set [1] was determined as 1321 ± 1 kg/m3. Also, the refractive index in data set [2] is listed as 1.4237 ± 0.0007.

As to `O=C(O)CCP(=O)(O)c1ccccc1` [3-(hydroxy(phenyl)phosphoryl)propanoic acid], the Normal melting temperature in data set [1] worked out at 159.51 ± 0.5 °C. In addition, the “Molar enthalpy of transition or fusion” value in data set [3] was 33.6 ± 0.97 kJ/mol.

Regarding `c1ccncc1` [pyridine], the mass density in data set [1] was found to be 983 ± 1 kg/m3. Besides, the refractive index in data set [2] amounted to 1.5095 ± 0.0007.

For the compound `C1CCOC1` [tetrahydrofuran], the refractive index in data set [2] is reported as 1.405 ± 0.0008.

With `c1ccccc1` [benzene], the mass density in data set [1] came out at 879 ± 1 kg/m3. Further, the refractive index in data set [2] worked out at 1.5011 ± 0.0007.

For the compound `CC(C)=O` [acetone], the mass density in data set [1] is given as 790 ± 1 kg/m3. Besides, in data set [2], the refractive index came out at 1.359 ± 0.0007.

Regarding `CCOC(C)=O` [ethyl acetate], the mass density in data set [1] is 899 ± 1 kg/m3. Moreover, the refractive index in data set [2] worked out at 1.3719 ± 0.0007.

As to `ClC(Cl)Cl` [trichloromethane], the mass density in data set [1] is 1484 ± 2 kg/m3. Further, the refractive index in data set [2] worked out at 1.4476 ± 0.0007.

As to `CC#N` [acetonitrile], in data set [1], the mass density is on record as 783 ± 1 kg/m3. The refractive index in data set [2] is given as 1.343 ± 0.0007.

Take `CCOCC` [diethyl ether]: the mass density in data set [1] is 714 ± 1 kg/m3. Also, the refractive index in data set [2] is reported as 1.3497 ± 0.0007.

With `COc1ccc(P(c2ccc(OC)cc2)c2ccc(OC)cc2)cc1` [tris(4-methoxyphenyl)phosphane], the Normal melting temperature in data set [1] is 130.67 ± 0.5 °C. For the same compound, the “Molar enthalpy of transition or fusion” value in data set [3] was 25.7 ± 0.78 kJ/mol.

Regarding `COc1ccc(P(=O)(c2ccc(OC)cc2)c2ccc(OC)cc2)cc1` [tris(4-methoxyphenyl)phosphine oxide], the Normal melting temperature in data set [1] came out at 144.69 ± 0.5 °C. Besides, the “Molar enthalpy of transition or fusion” value in data set [3] is 28.5 ± 0.81 kJ/mol.

Consider `CCC(C)=O` [butanone], for which the mass density in data set [1] is reported as 805 ± 1 kg/m3. In addition, the refractive index in data set [2] is given as 1.3788.
